In ChEMBL document CHEMBL1287680, “C-11 diamino cryptolepine derivatives NSC748392, NSC748393, and NSC748394: anticancer profile and G-quadruplex stabilization” (Bioorg Med Chem Lett, 2010):

Key:
[1] = tested on: Nucleic Acid; settings: Homo sapiens
Description: Binding affinity to human duplex DNA assessed as change in melting temperature by FRET-melting assay

[2] = tested on: SK-OV-3; assay: cells; settings: Homo sapiens
Description: Anticancer activity against human SKOV3 cells

[3] = tested on: OVCAR-4; assay: cells; settings: Homo sapiens
Description: Anticancer activity against human OVCAR4 cells

[4] = tested on: OVCAR-3; assay: cells; settings: Homo sapiens
Description: Anticancer activity against human OVCAR-3 cells

[5] = tested on: SK-MEL-5; assay: cells; settings: Homo sapiens
Description: Anticancer activity against human SK-MEL-5 cells

[6] = tested on: SK-MEL-28; assay: cells; settings: Homo sapiens
Description: Anticancer activity against human SK-MEL-28 cells

[7] = tested on: M14; assay: cells; settings: Homo sapiens
Description: Anticancer activity against human M14 cells

[8] = tested on: Malme-3M; assay: cells; settings: Homo sapiens
Description: Anticancer activity against human MALME-3M cells

[9] = tested on: U-251; assay: cells; settings: Homo sapiens
Description: Anticancer activity against human U251 cells

[10] = tested on: SF-539; assay: cells; settings: Homo sapiens
Description: Anticancer activity against human SF539 cells

[11] = tested on: SF-268; assay: cells; settings: Homo sapiens
Description: Anticancer activity against human SF268 cells

[12] = tested on: SW-620; assay: cells; settings: Homo sapiens
Description: Anticancer activity against human SW620 cells

[13] = tested on: HCT-116; assay: cells; settings: Homo sapiens
Description: Anticancer activity against human HCT116 cells

[14] = tested on: HCC 2998; assay: cells; settings: Homo sapiens
Description: Anticancer activity against human HCC2998 cells

[15] = tested on: COLO 205; assay: cells; settings: Homo sapiens
Description: Anticancer activity against human COLO205 cells

[16] = tested on: NCI-H460; assay: cells; settings: Homo sapiens
Description: Anticancer activity against human NCI-H460 cells

[17] = tested on: SR; assay: cells; settings: Homo sapiens
Description: Anticancer activity against human SR cells

[18] = cells; settings: Homo sapiens
Description: Anticancer activity against human RPMI8266 cells

[19] = tested on: MOLT-4; assay: cells; settings: Homo sapiens
Description: Anticancer activity against human MOLT4 cells

[20] = tested on: CCRF-CEM; assay: cells; settings: Homo sapiens
Description: Anticancer activity against human CCRF-CEM cells

[21] = tested on: MDA-MB-468; assay: cells; settings: Homo sapiens
Description: Anticancer activity against human MDA-MB-468 cells

[22] = tested on: NCI/ADR-RES; assay: cells; settings: Homo sapiens
Description: Anticancer activity against human NCI/ADR-RES cells

[23] = tested on: MCF7; assay: cells; settings: Homo sapiens
Description: Anticancer activity against human MCF7 cells

[24] = tested on: DU-145; assay: cells; settings: Homo sapiens
Description: Anticancer activity against human DU145 cells

[25] = tested on: PC-3; assay: cells; settings: Homo sapiens
Description: Anticancer activity against human PC3 cells

[26] = tested on: UO-31; assay: cells; settings: Homo sapiens
Description: Anticancer activity against human UO31 cells

[27] = tested on: SN12C; assay: cells; settings: Homo sapiens
Description: Anticancer activity against human SN12C cells

[28] = tested on: CAKI-1; assay: cells; settings: Homo sapiens
Description: Anticancer activity against human Caki1 cells

[29] = tested on: ACHN; assay: cells; settings: Homo sapiens
Description: Anticancer activity against human ACHN cells

[30] = physchem
Description: Dissociation constant, pKa of the compound by UV-visible spectroscopy

Q: For C[n+]1c2ccccc2c(NC2CCNCC2)c2[nH]c3ccccc3c21.[Cl-], which ΔTm [1] is on record?
A: 15.1 °C

Q: What about the GI50 ([2]; SK-OV-3, read-out: pGI50 (converted)) of the same compound?
A: 0.447 µM

Q: And the CC50 ([2]; SK-OV-3, read-out: pLC50 (converted))?
A: 77.6 µM

Q: What about the TGI ([2]; SK-OV-3, read-out: pTGI) of the same compound?
A: 3.89 µM

Q: And the GI50 ([3]; OVCAR-4, read-out: pGI50 (converted))?
A: 0.316 µM

Q: What about the CC50 ([3]; OVCAR-4, read-out: pLC50 (converted)) of the same compound?
A: 36.3 µM

Q: What about the TGI ([3]; OVCAR-4, read-out: pTGI) of the same compound?
A: 3.8 µM

Q: And the GI50 ([4]; OVCAR-3, read-out: pGI50 (converted))?
A: 1.45 µM

Q: What about the CC50 ([4]; OVCAR-3, read-out: pLC50 (converted)) of the same compound?
A: 95.5 µM

Q: And the TGI ([4]; OVCAR-3, read-out: pTGI)?
A: 9.55 µM

Q: And the GI50 ([5]; SK-MEL-5, read-out: pGI50 (converted))?
A: 0.302 µM

Q: And the CC50 ([5]; SK-MEL-5, read-out: pLC50 (converted))?
A: 4.68 µM

Q: And the TGI ([5]; SK-MEL-5, read-out: pTGI)?
A: 1.32 µM

Q: What about the GI50 ([6]; SK-MEL-28, read-out: pGI50 (converted)) of the same compound?
A: 1.05 µM

Q: And the CC50 ([6]; SK-MEL-28, read-out: pLC50 (converted))?
A: 10.5 µM

Q: What about the TGI ([6]; SK-MEL-28, read-out: pTGI) of the same compound?
A: 3.24 µM

Q: What about the GI50 ([7]; M14, read-out: pGI50 (converted)) of the same compound?
A: 3.16 µM

Q: And the CC50 ([7]; M14, read-out: pLC50 (converted))?
A: 43.7 µM

Q: And the TGI ([7]; M14, read-out: pTGI)?
A: 15.1 µM

Q: What about the GI50 ([8]; read-out: pGI50 (converted)) of the same compound?
A: 1.55 µM

Q: What about the CC50 ([8]; read-out: pLC50 (converted)) of the same compound?
A: 20 µM

Q: What about the TGI ([8]; read-out: pTGI) of the same compound?
A: 4.37 µM

Q: What about the GI50 ([9]; U-251, read-out: pGI50 (converted)) of the same compound?
A: 0.282 µM

Q: And the CC50 ([9]; U-251, read-out: pLC50 (converted))?
A: > 100 µM

Q: And the TGI ([9]; U-251, read-out: pTGI)?
A: 2.95 µM

Q: And the GI50 ([10]; SF-539, read-out: pGI50 (converted))?
A: 1.66 µM

Q: And the CC50 ([10]; SF-539, read-out: pLC50 (converted))?
A: 28.8 µM

Q: And the TGI ([10]; SF-539, read-out: pTGI)?
A: 7.41 µM

Q: And the GI50 ([11]; SF-268, read-out: pGI50 (converted))?
A: 0.0457 µM

Q: And the CC50 ([11]; SF-268, read-out: pLC50 (converted))?
A: 42.7 µM

Q: And the TGI ([11]; SF-268, read-out: pTGI)?
A: 1.38 µM

Q: What about the GI50 ([12]; SW-620, read-out: pGI50 (converted)) of the same compound?
A: 1.45 µM

Q: What about the CC50 ([12]; SW-620, read-out: pLC50 (converted)) of the same compound?
A: > 100 µM

Q: What about the TGI ([12]; SW-620, read-out: pTGI) of the same compound?
A: 10.7 µM

Q: What about the GI50 ([13]; HCT-116, read-out: pGI50 (converted)) of the same compound?
A: 0.813 µM

Q: And the CC50 ([13]; HCT-116, read-out: pLC50 (converted))?
A: > 100 µM

Q: What about the TGI ([13]; HCT-116, read-out: pTGI) of the same compound?
A: 4.9 µM

Q: And the GI50 ([14]; HCC 2998, read-out: pGI50 (converted))?
A: 0.324 µM

Q: And the CC50 ([14]; HCC 2998, read-out: pLC50 (converted))?
A: 5.25 µM

Q: And the TGI ([14]; HCC 2998, read-out: pTGI)?
A: 1.7 µM

Q: And the GI50 ([15]; COLO 205, read-out: pGI50 (converted))?
A: 0.339 µM

Q: And the CC50 ([15]; COLO 205, read-out: pLC50 (converted))?
A: 14.5 µM

Q: What about the TGI ([15]; COLO 205, read-out: pTGI) of the same compound?
A: 2.4 µM

Q: And the GI50 ([16]; NCI-H460, read-out: pGI50 (converted))?
A: 0.245 µM

Q: And the CC50 ([16]; NCI-H460, read-out: pLC50 (converted))?
A: 22.4 µM

Q: What about the TGI ([16]; NCI-H460, read-out: pTGI) of the same compound?
A: 1.62 µM

Q: What about the GI50 ([17]; read-out: pGI50 (converted)) of the same compound?
A: 1.7 µM

Q: And the CC50 ([17]; read-out: pLC50 (converted))?
A: > 100 µM

Q: What about the TGI ([17]; read-out: pTGI) of the same compound?
A: > 100 µM

Q: And the GI50 ([18]; RPMI8266, read-out: pGI50 (converted))?
A: 0.661 µM

Q: And the CC50 ([18]; RPMI8266, read-out: pLC50 (converted))?
A: > 100 µM

Q: What about the TGI ([18]; RPMI8266, read-out: pTGI) of the same compound?
A: 3.89 µM

Q: What about the GI50 ([19]; MOLT-4, read-out: pGI50 (converted)) of the same compound?
A: 0.138 µM

Q: What about the CC50 ([19]; MOLT-4, read-out: pLC50 (converted)) of the same compound?
A: > 100 µM

Q: What about the TGI ([19]; MOLT-4, read-out: pTGI) of the same compound?
A: > 100 µM

Q: And the GI50 ([20]; read-out: pGI50 (converted))?
A: 0.457 µM

Q: What about the CC50 ([20]; read-out: pLC50 (converted)) of the same compound?
A: 52.5 µM

Q: And the TGI ([20]; read-out: pTGI)?
A: 3.02 µM

Q: What about the GI50 ([21]; MDA-MB-468, read-out: pGI50 (converted)) of the same compound?
A: 0.234 µM

Q: And the CC50 ([21]; MDA-MB-468, read-out: pLC50 (converted))?
A: 6.92 µM

Q: And the TGI ([21]; MDA-MB-468, read-out: pTGI)?
A: 1.58 µM

Q: What about the GI50 ([22]; read-out: pGI50 (converted)) of the same compound?
A: > 100 µM

Q: And the CC50 ([22]; read-out: pLC50 (converted))?
A: > 100 µM

Q: And the TGI ([22]; read-out: pTGI)?
A: > 100 µM

Q: What about the GI50 ([23]; MCF7, read-out: pGI50 (converted)) of the same compound?
A: 0.224 µM

Q: And the CC50 ([23]; MCF7, read-out: pLC50 (converted))?
A: > 100 µM

Q: And the TGI ([23]; MCF7, read-out: pTGI)?
A: 2.14 µM

Q: And the GI50 ([24]; DU-145, read-out: pGI50 (converted))?
A: 0.204 µM

Q: And the CC50 ([24]; DU-145, read-out: pLC50 (converted))?
A: > 100 µM

Q: And the TGI ([24]; DU-145, read-out: pTGI)?
A: 10.2 µM

Q: What about the GI50 ([25]; PC-3, read-out: pGI50 (converted)) of the same compound?
A: 1.95 µM

Q: What about the CC50 ([25]; PC-3, read-out: pLC50 (converted)) of the same compound?
A: 97.7 µM

Q: What about the TGI ([25]; PC-3, read-out: pTGI) of the same compound?
A: 10.5 µM

Q: What about the GI50 ([26]; UO-31, read-out: pGI50 (converted)) of the same compound?
A: 13.2 µM

Q: What about the CC50 ([26]; UO-31, read-out: pLC50 (converted)) of the same compound?
A: > 100 µM

Q: And the TGI ([26]; UO-31, read-out: pTGI)?
A: 46.8 µM

Q: And the GI50 ([27]; read-out: pGI50 (converted))?
A: 0.0295 µM

Q: And the CC50 ([27]; read-out: pLC50 (converted))?
A: > 100 µM

Q: What about the TGI ([27]; read-out: pTGI) of the same compound?
A: 0.316 µM

Q: What about the GI50 ([28]; CAKI-1, read-out: pGI50 (converted)) of the same compound?
A: 15.1 µM

Q: What about the CC50 ([28]; CAKI-1, read-out: pLC50 (converted)) of the same compound?
A: > 100 µM

Q: What about the TGI ([28]; CAKI-1, read-out: pTGI) of the same compound?
A: 60.3 µM

Q: And the GI50 ([29]; read-out: pGI50 (converted))?
A: 11.5 µM

Q: And the CC50 ([29]; read-out: pLC50 (converted))?
A: > 100 µM

Q: What about the TGI ([29]; read-out: pTGI) of the same compound?
A: 64.6 µM

Q: And the pKa [30]?
A: 11.8
